Patent publication US6531288B1, “Methods to identify compounds that affect the expression level of the syntaxin-1 A encoding gene” (University of British Columbia, priority 1999, dated 2003)
Starred links: 1 amine or outer side, 2 acyl side, 3 side chain; linkers in the order of their positions; H or OH if unused. Positions of bridges follow the written chain, without caps; N, C: chain ends. Non-standard residues stand in square brackets, D forms with d. Residues, ends and D or L forms follow the SMILES beside them. Chains are numbered I, II in the order given. Actinocin(9to1) = Cc1c2oc3c(C)ccc(C(=O)[*:1])c3nc-2c(C(=O)[*:2])c(N)c1=O; NMeV = CN[C@H](C(=O)O)C(C)C; Sar = CNCC(=O)O

Tests used:
syntaxin-1A [1] = assay: Syntaxin-1A expression (mRNA/protein) in HEK293 cells transfected with the α1A P/Q type calcium channel; type: cell-based, human; settings: for calcium dependent induction of syntaxin-1A: α1A transfected cells
syntaxin-1A [2] = assay: Syntaxin-1A expression in untransfected HEK293 cells treated with agents that alter intracellular calcium; type: cell-based; settings: for syntaxin-1A mRNA levels: untransfected cells / absence of α1A transfection
syntaxin-1A [3] = assay: Syntaxin-1A expression in cerebellar granule cells (endogenous P/Q type channels); type: cell-based
Procedure: The foregoing results in HEK293 transfected cells were correlated with the endogenous P/Q type channels in neurons. Syntaxin-1A is basally expressed in cerebellar granule cells, but this is inhibited by ω Agatoxin IVA, which is known to inhibit calcium P/Q type channels specifically. […] Treatment of these cerebellar granule cells, which had been incubated in ω Agatoxin IVA with thapsigargin recovered the syntaxin-1A expression.
Syntaxin-1A expression was inhibited by the same agents as had inhibited it in HEK293 cells including inhibitors of ryanodine —or IP3—induced calcium release from stores, of CaM kinase II/IV, and of PKA, or MAPKK.

CC(=O)OCOC(=O)CN(CC(=O)OCOC(C)=O)c1ccccc1OCCOc1ccccc1N(CC(=O)OCOC(C)=O)CC(=O)OCOC(C)=O [BAPTA-AM]
calcium dependent induction of syntaxin-1A (syntaxin-1A [1]): blocked

Cn1c(=O)c2c(ncn2C)n(C)c1=O [caffeine]
calcium release from ryanodine- and IP3-sensitive stores (syntaxin-1A [2]; untransfected cells): activated
syntaxin-1A mRNA levels (syntaxin-1A [2]): stimulated

Cc1c2oc3c(C)ccc(C(=O)N[C@@H]4C(=O)N[C@H](C(C)C)C(=O)N5CCC[C@H]5C(=O)N(C)CC(=O)N(C)[C@@H](C(C)C)C(=O)O[C@@H]4C)c3nc-2c(C(=O)N[C@@H]2C(=O)N[C@H](C(C)C)C(=O)N3CCC[C@H]3C(=O)N(C)CC(=O)N(C)[C@@H](C(C)C)C(=O)O[C@@H]2C)c(N)c1=O [actinomycin D] (I: T[dV]P[Sar][NMeV] / II: T[dV]P[Sar][NMeV]; ester I:1-I:C, II:1-II:C; linker I:N-II:N via Actinocin(9to1))
mRNA corresponding to syntaxin-1A (syntaxin-1A [1]; HEK293 cells transfected with the α1A P/Q type calcium channel): inhibited

ω Agatoxin IVA
syntaxin-1A expression (basal, calcium dependent) (syntaxin-1A [3]; cerebellar granule cells): inhibited

C/C=C(/C)C(=O)O[C@H]1C(C)=C2[C@H]([C@@H]1OC(=O)CCCCCCC)[C@@](C)(OC(C)=O)C[C@H](OC(=O)CCC)[C@@]1(O)[C@H]2OC(=O)[C@@]1(C)O [thapsigargin]
syntaxin-1A expression (syntaxin-1A [2]; untransfected cells): stimulated
syntaxin-1A expression after P/Q block (syntaxin-1A [3]; cerebellar granule cells which had been incubated in ω Agatoxin IVA): recovered

C[C@H](CCC(=O)O)C[C@H](C)C[C@H](C)C(=O)/C=C(\O)[C@H](C)C[C@H](C)C/C=C/[C@@H](C)[C@@H](O)[C@@H](C)[C@@H](O)C[C@@H]1CC[C@@](C)([C@H]2CC[C@@](C)([C@@H](C)O)O2)O1 [ionomycin]
levels giving maximal activation of syntaxin-1A production (syntaxin-1A [2]): 50 to 200 nM

CC(=O)OCOC(=O)CN(CCOCCOCCN(CC(=O)OCOC(C)=O)CC(=O)OCOC(C)=O)CC(=O)OCOC(C)=O [EGTA-AM]
calcium dependent induction of syntaxin-1A (syntaxin-1A [1]): blocked

C[N+](C)(C)CCOC(N)=O [carbachol]
calcium release from ryanodine- and IP3-sensitive stores (syntaxin-1A [2]; untransfected cells): activated
syntaxin-1A mRNA levels (syntaxin-1A [2]): stimulated
